Assay results as given in US6703403B2, “Method for improving pharmacokinetics” (Abbott Laboratories, priority 1995, dated 2004).
Values belong to the molecule of their own block, whether it stands above or below them.

Columns and labels:
[1] = Pharmacokinetics of HIV protease inhibitors in rats, alone vs. in combination with ritonavir; format: in vivo; settings: rat, po, 10 mg/kg; for AUC(0-t): read-out: AUC (0-8 h)
Description: Rats (male, Sprague-Dawley derived, 0.3-0.45 kg) were fasted overnight prior to dosing, but were permitted water ad libitum. […] The solutions, administered orally by gavage to a group of rats at a dose volume of 2 ml/kg, provided a 10 mg/kg dose of each compound. […] The plasma was separated from the red cells by centrifugation and frozen (−30° C.) until analysis. […] The peak plasma concentration (Cmax) and time to peak plasma concentration (Tmax) for each rat were obtained directly from the plasma concentration data. The area under the curve was calculated by the trapezoidal method over the time course of the study. The plasma elimination half life was obtained from NONLIN84 or from a log-linear regression of the terminal plasma concentrations as a function of time after dosing. Each combination was evaluated in a group containing at least three rats; the values reported are averages for each group of animals. The data obtained from the combination was compared to data obtained from a separate group of rats which received a single, separate dose of the compound under evaluation.

[2] = Pharmacokinetics of clarithromycin in humans, alone vs. in combination with ritonavir; format: in vivo; settings: oral, healthy human volunteers, 500 mg every 12 hours, single agent, day four of dosing, plasma
From the text: Blood samples were collected on day four of dosing for HPLC determination of plasma concentrations of clarithromycin. Below in Table 2 are shown the results from the pharmacokinetic experiments with clarithromycin in humans.

[3] = male, Sprague-Dawley, plasma, oral gavage 10 mg/kg, compound administered as a single agent, plasma
[4] = male, Sprague-Dawley, plasma, oral gavage 10 mg/kg, compound administered as a single agent, plasma, read-out: Cmax
[5] = male, Sprague-Dawley, plasma, oral gavage 10 mg/kg, compound administered as a single agent, plasma, read-out: Tmax
[6] = male, Sprague-Dawley, plasma, oral gavage 10 mg/kg, dosed in combination with ritonavir 10 mg/kg, plasma
[7] = male, Sprague-Dawley, plasma, oral gavage 10 mg/kg, dosed in combination with ritonavir 10 mg/kg, plasma, read-out: Cmax
[8] = male, Sprague-Dawley, plasma, oral gavage 10 mg/kg, dosed in combination with ritonavir 10 mg/kg, plasma, read-out: Tmax

AUC(0-t) [1, 3]: 1140 ng·h/mL
Cmax [1, 4]: 400 ng/mL
Tmax [1, 5]: 45 min
AUC(0-t) [1, 6]: 11900 ng·h/mL
Cmax [1, 7]: 1810 ng/mL
Tmax [1, 8]: 240 min
SMILES: Cc1c(O)cccc1C(=O)NC(CSc1ccccc1)C(O)CN1CC2CCCCC2CC1C(=O)NC(C)(C)C (centres unmarked) [AG1343]

AUC (0-8 h) ([1]; male, Sprague-Dawley, in vivo): 810 ng·h/mL
Tmax ([1]; male, Sprague-Dawley, in vivo): 30 min
Cmax ([1]; male, Sprague-Dawley, in vivo, Cmax): 1030 ng/mL
SMILES: CC(C)(C)NC(=O)[C@@H]1CN(Cc2cccnc2)CCN1C[C@@H](O)C[C@@H](Cc1ccccc1)C(=O)N[C@H]1c2ccccc2C[C@H]1O [MK-639, N-(2(R)-hydroxy-1 (S)-indanyl)-2(R)-phenylmethyl-4(S)-hydroxy-5-(1-(4-(3-pyridylmethyl)-2(S)-N′-(t-butylcarboxamido)-piperazinyl))-pentaneamide]

AUC (0-8 h) ([1]; male, Sprague-Dawley, in vivo): 29 ng·h/mL
Cmax ([1]; male, Sprague-Dawley, in vivo): 80 ng/mL
Tmax ([1]; male, Sprague-Dawley, in vivo): 10.8 min
SMILES: CC(C)(C)NC(=O)[C@@H]1C[C@@H]2CCCC[C@@H]2CN1C[C@@H](O)[C@H](Cc1ccccc1)NC(=O)[C@H](CC(N)=O)NC(=O)c1ccc2ccccc2n1 [Saquinavir, N-tert-butyl-decahydro-2-[2(R)-hydroxy-4-phenyl-3(S)-[[N-(2-quinolylcarbonyl)-L-asparaginyl]amino]butyl]-(4aS, 8aS)-isoquinoline-3(S)-carboxamide]

Further lines, the molecule ahead of its results:

SMILES: CC(C)[C@H](NC(=O)N(C)Cc1ccccn1)C(=O)N[C@@H](Cc1ccccc1)[C@H](O)[C@H](O)[C@H](Cc1ccccc1)NC(=O)[C@@H](NC(=O)N(C)Cc1ccccn1)C(C)C [Compound A-77003, (2S,3R,4S,5S)-2,5-Di-(N-((N-methyl)-N-((2-pyridinyl)methyl)amino)carbonylvalinylamino)-3,4-dihydroxy-1,6-diphenyl hexane]
AUC(0-t) [1, 3]: 25 ng·h/mL
Cmax [1, 4]: 70 ng/mL
Tmax [1, 5]: 15 min
AUC(0-t) [1, 6]: 1390 ng·h/mL
Cmax [1, 7]: 960 ng/mL
Tmax [1, 8]: 40.2 min

SMILES: CC(C)[C@H](NC(=O)OCc1ccccn1)C(=O)N[C@@H](Cc1ccccc1)[C@@H](O)C[C@H](Cc1ccccc1)NC(=O)OCc1cccnc1 [Compound A-80987]
AUC (0-8 h) ([1]; in vivo): 1450 ng·h/mL
Cmax ([1]; in vivo): 2420 ng/mL
Tmax ([1]; in vivo): 15 min

SMILES: CC(C)CN(CC(O)C(Cc1ccccc1)NC(=O)OC1CCOC1)S(=O)(=O)c1ccc(N)cc1 (centres unmarked) [VX-478]
AUC(0-t) ([1]; male, Sprague-Dawley, in vivo, oral gavage 10 mg/kg, compound administered as a single agent, plasma): 1690 ng·h/mL
Cmax ([1]; male, Sprague-Dawley, in vivo, oral gavage 10 mg/kg, compound administered as a single agent, plasma, read-out: Cmax): 1610 ng/mL
Tmax ([1]; male, Sprague-Dawley, in vivo, oral gavage 10 mg/kg, compound administered as a single agent, plasma, read-out: Tmax): 25.2 min
AUC(0-t) ([1]; male, Sprague-Dawley, in vivo, oral gavage 10 mg/kg, dosed in combination with ritonavir 10 mg/kg, plasma): 13500 ng·h/mL
Cmax ([1]; male, Sprague-Dawley, in vivo, oral gavage 10 mg/kg, dosed in combination with ritonavir 10 mg/kg, plasma, read-out: Cmax): 2880 ng/mL
Tmax ([1]; male, Sprague-Dawley, in vivo, oral gavage 10 mg/kg, dosed in combination with ritonavir 10 mg/kg, plasma, read-out: Tmax): 90 min

SMILES: CC[C@H]1OC(=O)[C@H](C)[C@@H](O[C@H]2C[C@@](C)(OC)[C@@H](O)[C@H](C)O2)[C@H](C)[C@@H](O[C@@H]2O[C@H](C)C[C@H](N(C)C)[C@H]2O)[C@](C)(OC)C[C@@H](C)C(=O)[C@H](C)[C@@H](O)[C@]1(C)O [clarithromycin]
Cmax [2]: 3930 ng/mL
AUC(0-t) ([2]; read-out: AUC (0-24 h)): 49000 ng·h/mL
